Results from ChEMBL document CHEMBL1130968, “Synthesis and biological evaluation of 2,2-disubstituted 2-aminoethanols: analogues of FTY720” (1998).

Experiments:
Rattus norvegicus [1] = experiment: Decrease in number of T cells in peripheral blood after administration for 4 days in rat; format: functional; conditions: T-cell, 96 h, read-out: ID50 (the source's name)
Rattus norvegicus [2] = experiment: In vivo immunosuppressive effect of compound was determined on host versus graft reaction (HvGR) using popliteal lymph node gain assay in rat; format: functional; conditions: read-out: ID50 (the source's name)

| Structure (SMILES) | ED50 (Rattus norvegicus [1]) [mg/kg] | ED50 (Rattus norvegicus [2]) [mg/kg] |
| --- | --- | --- |
| CCCCCCCOc1ccc(CCC(N)(CO)CCC)cc1 (stereo unspecified) | 7.3 | 3.1 |
| CCCCCCCOc1ccc(CCC(N)(CO)C(C)C)cc1 (stereo unspecified) | 4.5 | 2.7 |
| CCCCCCCOc1ccc(CC[C@](C)(N)CO)cc1 | > 1 | > 1 |
| CCCCCCCOc1ccc(CC[C@@](C)(N)CO)cc1 | 0.0092 | 0.088 |
| CCCCCCCOc1ccc(CCC(N)(CC)CO)cc1 (stereo unspecified) | 0.044 | 0.059 |
| CCCCCCCOc1ccc(CC[C@](N)(CO)CCC)cc1 | > 10 | > 10 |
| CCCCCCCCc1ccc(CCC(N)CO)cc1.Cl (stereo unspecified) | > 10 | > 10 |
| CCCCCCCOc1ccc(CCC(N)(CO)CO)cc1 | 0.014 | 0.049 |
| CCCCCCCOc1ccc(CCC(N)(CO)CCCC)cc1 (stereo unspecified) | > 10 | > 10 |
| CCCCCCCOc1ccc(CC[C@@](N)(CO)CCC)cc1 | 4.4 | 0.63 |
| CCCCCCCOc1ccc(CCC(C)(N)CO)cc1 (stereo unspecified) | 0.061 | 0.031 |
| C/C=C/C[C@@H](C)[C@@H](O)[C@H]1C(=O)N[C@@H](CC)C(=O)N(C)CC(=O)N(C)[C@@H](CC(C)C)C(=O)N[C@@H](C(C)C)C(=O)N(C)[C@@H](CC(C)C)C(=O)N[C@@H](C)C(=O)N[C@H](C)C(=O)N(C)[C@@H](CC(C)C)C(=O)N(C)[C@@H](CC(C)C)C(=O)N(C)[C@@H](C(C)C)C(=O)N1C [CYCLOSPORINE] | > 30 | 2.8 |
| CCCCCCCCc1ccc(CCC(N)(CO)CO)cc1.Cl [FINGOLIMOD HYDROCHLORIDE] | 0.024 | 0.2 |
